In PubChem BioAssay (NCI):
“And” between values parts separate entries of the source, which are not always exact repeats. Equal values may be shown once.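 Protocol summary: plate cells (96-well), add compound at 5 concentrations, incubate 48 h, interpolate endpoints linearly. The concentration for 50% growth inhibition is given as GI50. Definition used: TGI = concentration required for complete inhibition of growth.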

Experiments:
Experiment in all cases: inhibition of tumour cell growth, NCI panel, 48 h
[1] = test system: A549 NSCLC
[2] = test system: TK-10 renal
[3] = test system: RXF 393 renal
[4] = test system: MOLT-4 leukemia
[5] = test system: SR leukemia
[6] = test system: RPMI-8226 leukemia
[7] = test system: 786-0 renal
[8] = test system: OVCAR-3 ovarian
[9] = test system: COLO 205 colon
[10] = test system: UO-31 renal

| Compound | GI50 [1] [µM] | TGI [1] | GI50 [2] [µM] | TGI [2] | GI50 [3] | TGI [3] | GI50 [4] | TGI [4] | GI50 [5] [µM] | TGI [5] [µM] | GI50 [6] | TGI [6] | GI50 [7] | TGI [7] | GI50 [8] | TGI [8] | GI50 [9] | TGI [9] | GI50 [10] | TGI [10] |
| --- | --- | --- | --- | --- | --- | --- | --- | --- | --- | --- | --- | --- | --- | --- | --- | --- | --- | --- | --- | --- |
| COc1ccc(CNCCCN2C(=O)c3ccc4c5c(ccc(c35)C2=O)C(=O)N(CCCNCCCCNCCCN)C4=O)c(OC)c1OC | 1.69 | 16.1 µM | 2.71 | 12.8 µM | 1.36 µM | 3.67 µM | 1.53 µM | 15.6 µM | 1.31 | 17.4 | 2.7 µM | 12.2 µM | 3.53 µM | 22.5 µM | 1.17 µM | 2.48 µM | 0.194 µM | 0.391 µM | 4.84 µM | > 100 µM |
| CCN(CCc1ccc(F)cc1)c1ccc(CO)c(Cl)c1 | 9.36 | 24.4 µM | 0.366 | 1.7 µM | 4.72 µM | 19.9 µM | 14.3 µM | 50.1 µM | 13.1 | 42.5 | 4.69 µM | 27.4 µM | 12.2 µM | 27 µM | 4.27 µM | 15.4 µM | 7.06 µM | 21.5 µM | 11.1 µM | 23.8 µM |
| CC(C)(C)c1cc2c(OP(c3ccccc3)c3ccccc3)c(c1)Cc1cc(C(C)(C)C)cc(c1OP(c1ccccc1)c1ccccc1)Cc1cc(C(C)(C)C)cc(c1OP(c1ccccc1)c1ccccc1)Cc1cc(C(C)(C)C)cc(c1OP(c1ccccc1)c1ccccc1)C2 | > 50 | > 50 µM | > 50 | > 50 µM | – | > 50 µM | – | > 5 µM | – | > 5 | 35.9 µM | > 50 µM | > 50 µM | > 50 µM | > 50 µM | > 50 µM | > 50 µM | > 50 µM | > 50 µM | > 50 µM |
| CCN(CC)CCNc1ccc(CO)c2sc3ccccc3c(=O)c12 | 3.2 | 13.6 µM and 21.4 µM and 18.2 µM | 2.96 | 11.4 µM and 24.9 µM | 2.23 µM and 7.35 µM | 8.45 µM and 19 µM and 20.3 µM | 3.14 µM and 3.32 µM | 14.1 µM [middle of 4 runs] | 2.29 | – | 2.51 µM and 1.59 µM | – | 4.99 µM and 19.4 µM | 18.8 µM and 52.1 µM | – | 20 µM [middle of 4 runs] | – | 3 µM and 13.9 µM and 18 µM | 2.09 µM and 8.51 µM | 20.9 µM [middle of 4 runs] |
| CC(=O)OC1C(O)COC(Oc2c(C)c3c4c(c2O)[C@@H](C)CC[C@@H]4[C@@H](C)C[C@H]3C=C(C)C)C1O (stereo partly drawn) | 16 | 40.3 µM | 14.7 | 29 µM | 7.81 µM | 25.4 µM | 4.89 µM | 28.5 µM | 3.87 | 19.1 | 13.3 µM | 33.2 µM | 27 µM | > 100 µM | 13.5 µM | 28.2 µM | 21.5 µM | 50.5 µM | 30 µM | > 100 µM |
| COc1cc2c(cc1OCCN1C(=O)c3cccc4cccc(c34)C1=O)N=C[C@@H]1CCCN1C2=O | 17.7 | 17.1 µM and 53.1 µM | – | 14.8 µM | 20.9 µM | 15 µM and 36.3 µM | 42.2 µM | 11 µM and > 100 µM | – | > 100 | 26 µM | 32 µM and > 100 µM | 16.5 µM | 14.7 µM and 33.9 µM | 14.9 µM | 13.1 µM and 28.2 µM | 14.9 µM | 15.1 µM and 30.6 µM | 16.8 µM | 15.8 µM and 30.5 µM |
| COc1ccc2c3c([nH]c2c1[N+](=O)[O-])C(C)N(C(=O)/C=C/c1ccccc1)CC3 (stereo not drawn) | – | 29.2 µM | – | > 100 µM | – | 24.1 µM | – | > 100 µM | – | > 100 | – | 9.66 µM | – | 25.8 µM | – | > 100 µM | – | > 100 µM | – | > 100 µM |
| COc1ncnc2c1ncn2C/C(Br)=C(\Br)CCl | 10.8 | 25.9 µM | 2.54 | 7.64 µM | 1.64 µM | 3.06 µM | 2.91 µM | 25.4 µM | 2.73 | 12.2 | 3.19 µM | 16.4 µM | 3.38 µM | 11.5 µM | 1.77 µM | 3.22 µM | 1.73 µM | 3.18 µM | 2.41 µM | 10.6 µM |
| CC(=O)N1C(=O)C(=O)c2cc(Cl)ccc21 | – | > 100 µM | – | > 100 µM | – | > 100 µM | – | > 100 µM | – | > 100 | – | > 100 µM | – | > 100 µM | – | > 100 µM | – | > 100 µM | – | > 100 µM |
| COc1ccc(-n2nc(C)c3c(Nc4ccc(NC(=O)Nc5cc(C(F)(F)F)ccc5F)cc4)ncnc32)cc1 | 2.35 | 5.86 µM | 3.74 | > 100 µM | 1.09 µM | 2.82 µM | 2.69 µM | 12.1 µM | 2.87 | > 100 | 2.26 µM | 5.88 µM | 2.04 µM | 5.2 µM | 2.4 µM | 6.84 µM | 1.98 µM | 4.93 µM | 1.79 µM | 7.04 µM |
| O=C(O)C1(C(=O)O)CCN(S(=O)(=O)c2ccccc2)CC1 | – | > 100 µM | – | > 100 µM | – | > 100 µM | – | > 100 µM | – | > 100 | – | > 100 µM | – | > 100 µM | – | > 100 µM | – | > 100 µM | – | > 100 µM |
| COc1cccc2c1C(=O)c1c(O)c3c(c(O)c1C2=O)C[C@@](O)(C(=O)COC(=O)c1cccnc1)C[C@@H]3OC1CC(N)C(O)C(C)O1 (stereo partly drawn) | 0.0774 | 0.533 µM | 0.149 | 0.845 µM | 0.169 µM | 0.589 µM | 0.0369 µM | 0.684 µM | 0.0173 | 2.4 | 0.114 µM | 0.714 µM | 0.14 µM | 1.25 µM | 0.287 µM | 2.52 µM | 0.168 µM | 1.01 µM | 0.46 µM | 2.89 µM |
| C[C@]1(O)CC(=O)[C@]2(O)C3=C(C=C[C@]2(O)C1)C(=O)c1c(O)cccc1C3=O | 16.3 | 38.6 µM | 2.27 | 3.97 µM | 1.46 µM | 2.85 µM | 1.12 µM | 3.98 µM | 0.635 | 4.95 | 1.64 µM | 5.65 µM | 2.88 µM | 8.5 µM | 1.23 µM | 2.62 µM | 0.229 µM | 0.584 µM | 1.23 µM | 2.52 µM |
| Cc1cc2cc(Oc3ccnc(Nc4cccc(CS(=O)(=O)NCCN(C)C)c4)n3)ccc2[nH]1 | 12 | 25.5 µM | 12.5 | 25.3 µM | 3.48 µM | 15.8 µM | 2.1 µM | 7.06 µM | 1.59 | 4.95 | 2.99 µM | 11.5 µM | 4.46 µM | 17 µM | 4.3 µM | 15.8 µM | 4.47 µM | 16.9 µM | 3.14 µM | 14.9 µM |
| O=C(O)c1cc2c3c(c1)[C@H]1C=CC[C@H]1CN3CC1CC=CC21 (stereo partly drawn) | – | > 100 µM | – | > 100 µM | – | > 100 µM | – | > 100 µM | – | > 100 | – | > 100 µM | – | > 100 µM | – | > 100 µM | – | > 100 µM | – | > 100 µM |
| CCCCCCCCOC(=O)c1cc(O)c(O)c(O)c1 | 12.7 | 49 µM | 3.77 | > 62.6 µM | 5.45 µM | 22 µM | 0.437 µM | 16.5 µM | 0.352 | 10.3 | 0.511 µM | > 100 µM | 2.46 µM | 11.9 µM | 2.03 µM | 14.9 µM | 9.36 µM | 24.8 µM | 0.279 µM | 2.9 µM |
| CCCCCCCCCCSS(=O)(=O)c1ccc(C)cc1 | – | 29.8 µM | – | 37.9 µM | – | 32.4 µM | – | 6.73 µM | – | 27.8 | – | 29.6 µM | – | 17.8 µM | – | 33.1 µM | – | 33.6 µM | – | 29 µM |
| CCOc1ccccc1N=C(NC(=O)CC)SC | > 100 | > 100 µM | – | > 10 µM | > 100 µM | > 100 µM | > 10 µM | > 100 µM | > 100 | > 100 | > 10 µM | > 100 µM | > 100 µM | > 100 µM | > 100 µM | > 100 µM | – | > 10 µM | > 100 µM | > 100 µM |
| C/C(=C\c1ccccc1)C(O)S(=O)(=O)O (stereo not drawn) | – | > 100 µM | – | > 100 µM | – | > 100 µM | – | > 100 µM | – | > 100 | – | > 100 µM | – | > 100 µM | – | > 100 µM | – | > 100 µM | – | > 100 µM |
| CCCCCCCCCCCCCCCC[N+](C)(C)C | – | 0.417 µM and 3.78 µM | 1.11 | 2.81 µM | 0.0963 µM and 0.235 µM | 0.244 µM and 0.83 µM | 0.157 µM and 1.17 µM | 0.346 µM and 2.8 µM | 0.166 | 0.551 | 0.142 µM | 0.792 µM | 0.966 µM | 2.43 µM | 0.182 µM and 1.16 µM | 0.519 µM and 2.81 µM | 0.16 µM and 1.19 µM | 0.295 µM and 2.75 µM | 0.552 µM and 2.18 µM | 2.27 µM and 10.6 µM |
